According to patent publication US20070092551A1, “Therapeutic agent” (TAKARA BIO INC., priority 2003, published 2007):

Legend:
[1] = tested on: mature adipocytes (3T3-L1 cells); experiment: Enhancing action on glucose uptake (2-deoxyglucose) into mature adipocytes; assay type: cell-based; conditions: Mus musculus, 3T3-L1, X=(S−N)/(P−N) of 2-deoxyglucose uptake, P=insulin 1 μg/mL, read-out: Enhancing Action on Glucose Uptake
Protocol: The induction of differentation into nature adipocytes was carried out by partially modifying the above-mentioned method of Rubin C. S. et al. 3T3-L1 cells (ATCC CCL-92.1) were suspended in a 10% fetal bovine serum (manufactured by Bio Whittaker)-containing Dulbecco's modified Eagle's medium (manufactured by Sigma, D6046) containing 200 μM ascorbic acid so as to have a density of 4×10^3 cells/mL, and the suspension was put in each well of a collagen type I-coated 12-well plate (Iwaki Glass Co., Ltd., code 4815-010) in an amount of 2 mL per well. The cells were cultured at 37° C. for 7 days in the presence of 5% carbon dioxide gas. On the seventh day, the medium was exchanged with 2 mL of a 10% fetal bovine serum (manufactured by Bio Whittaker)-containing Dulbecco's modified Eagle's medium containing 200 μM ascorbic acid, 0.25 μM dexamethasone, 10 μg/mL insulin (manufactured by TAKARA BIO INC.) and 0.5 mM 3-isobutyl-1-methylxanthine (manufactured by nacalai tesque, 19624-86). After 45 hours, the medium was exchanged with 2 mL of a 10% fetal bovine serum-containing Dulbecco's modified Eagle's medium containing 200 μM ascorbic acid and 5 μg/mL insulin. The medium was exchanged on after 2 days and 5 days, and the cells were cultured for 7 days, to give mature adipocytes.
As the evaluation of the enhancing action on glucose uptake, and also as the evaluation of the insulin-mimetic action, the amount of 2-deoxyglucose uptake into mature adipocytes during the stimulation of the test compound in the adipocytes was determined. As a test compound, a compound prepared in the Examples mentioned above or a commercially available compound was used.
After the termination of the culture, the medium was removed, and the cells were washed twice with a 0.1% (w/v) bovine serum albumin (manufactured by Sigma, A8022)-containing Dulbecco's modified Eagle's medium. Thereafter, 1 mL of the same medium containing a test compound in a concentration shown in each of Tables 20 to 23 was put to each well. The cells were cultured overnight at 37° C. in the presence of 5% carbon dioxide gas. Here, a group without containing the test compound was set as a negative control. After the overnight culture, the cells were washed twice with a HEPES buffer (140 mM NaCl, 5 mM KCl, 2.5 mM MgSO4, 1 mM CaCl2, 20 mM HEPES-Na (pH 7.4)). The amount 0.9 mL of the buffer containing a test compound in the same concentration was added to each well. The cells were cultured at 37° C. for 75 minutes. During the culture, as a positive control, there was set a group with addition of insulin to the well without addition of a test compound at a point 45 minutes passed so as to have a final concentration of 1 μg/mL. Thereafter, 100 μL of a HEPES buffer containing 0.5 μCi/mL 2-deoxy-[1,2-^3H(N)]-glucose (manufactured by PerkinElmer Life Sciences Inc., NET549A) and 1 mM 2-deoxyglucose (manufactured by nacalai tesque, 10722-11) was added thereto. The cells were cultured at 37° C. for additional 10 minutes. After the termination of the culture, the supernatant was removed, and the cells were washed three times with a phosphate buffer cooled to 4° C. Thereafter, 0.5 mL of a 1% Nonidet P-40-containing phosphate buffer was added to lyse the cells, whereby 2-deoxy-[1,2-^3H(N)]-glucose subjected to uptake into the cells was eluted. The radioactivity was determined with a liquid scintillation counter LS6500 (manufactured by Beckmann) using 25 μL of the supernatant with Ultima Gold (manufactured by PerkinElmer Life Sciences Inc., 6013329) as a scintillation cocktail. The enhancing action on glucose uptake was calculated by the following calculation formula, and shown by four ranks of +++, ++, + and +/−. • S: Amount of 2-deoxyglucose uptake in the presence of a test compound; • N: Amount of 2-deoxyglucose uptake in the negative control; and • P: Amount of 2-deoxyglucose uptake in the positive control; X=(S−N)/(P−N) (Judgment of Enhancing Action for 2-Deoxyglucose Uptake)

[2] = tested on: 3T3-L1 cells; experiment: Induction of adipocyte differentiation (amount of triglyceride biosynthesis); assay type: cell-based; conditions: Mus musculus, 3T3-L1, X=(S−N)/(P−N) of amount of triglyceride, P=insulin positive control, read-out: Action for Induction of Differentiation
Protocol: Induction of adipocyte differentiation was carried out by partially modifying the above-mentioned method of Rubin C. S. et al. In addition, as a test compound, a compound prepared in Examples mentioned above or a commercially available compound was used. 3T3-L1 cells (ATCC CCL-92.1) were suspended in a 10% fetal bovine serum (manufactured by Bio Whittaker)-containing Dulbecco's modified Eagle's medium (manufactured by Sigma, D6046) containing 200 μM ascorbic acid so as to have a density of 4×10^3 cells/mL, and the suspension was put in each well of a 12-well microtiter plate in an amount of 2 ml per well. The cells were cultured at 37° C. for 7 days in the presence of 5% carbon dioxide gas. On the seventh day, the medium was exchanged with a 10% fetal bovine serum (manufactured by Bio Whittaker)-containing Dulbecco's modified Eagle's medium containing 200 μM ascorbic acid and 0.25 μM dexamethasone, and a test compound dissolved in dimethyl sulfoxide in a concentration shown in each of Tables 16 to 19 was added to each well. Here, there were set a group with addition of 4 μL of an aqueous solution containing 5 mg/mL insulin (manufactured by TAKARA BIO INC.) as a positive control, and a group with addition of dimethyl sulfoxide as a negative control. After 45 hours, the medium was exchanged with a 10% fetal bovine serum-containing Dulbecco's modified Eagle's medium containing 200 μM ascorbic acid. A test compound, 2 μL of an aqueous solution containing 5 mg/mL insulin as a positive control, or dimethyl sulfoxide as a negative control was put to each well in the same concentration. The cells were cultured for additional 7 days. In addition, the medium was exchanged on after 2 days and after 5 days, and at that time, a test compound, 2 μL of an aqueous solution containing 5 mg/mL insulin as a positive control, or dimethyl sulfoxide as a negative control was put to each well in the same concentration.
The amount of triglyceride in the adipocytes was determined as an index of induction of differentiation into mature adipocytes, and also, as the evaluation of insulin-mimetic action.
After the termination of the culture, the medium was removed, and the cells were washed twice with a phosphate buffered saline. One milliliter of a solvent of hexane:isopropanol=3:2 was added to the cells. The mixture was allowed to stand at room temperature for 30 minutes, and thereafter the supernatant was collected. The procedures were repeated again, and 2 mL of the supernatant was concentrated to dryness. The precipitate was dissolved in 100 μL of isopropanol, and the amount of triglyceride contained in 10 μL of the solution was determined using a triglyceride E-test (manufactured by Wako Pure Chemical Industries, Ltd., code 432-40201). In addition, all the determinations were carried out twice. The action for induction of differentiation was calculated by the following calculation formula, and shown by four ranks of +++, ++, + and +/−. • S: Amount of triglyceride in the presence of a test compound; • N: Amount of triglyceride in the negative control; and • P: Amount of triglyceride in the positive control; X=(S−N)/(P−N) (Judgment of Action for Induction of Differentiation)

| SMILES | activation at 3 µM [1] | activation at 10 µM [1] | activation at 3 µM [2] | activation at 30 µM [1] | activation at 10 µM [2] | activation at 1.3 µM ([2]; 1.3 μM) | activation at 4 µM [2] | activation at 13 µM [2] | activation at 1 µM [2] | activation at 30 µM ([2]; 30 μM) |
| --- | --- | --- | --- | --- | --- | --- | --- | --- | --- | --- |
| CC(C)=CCC/C(C)=C/Cc1c(OCc2ccccc2)ccc(C(=O)/C=C/c2ccc(O)cc2)c1O [Compound (C073), 4,2′-dihydroxy-3′-geranyl-4′-benzyloxychalcone] | 15 to 30% | 15 to 30% | 15 to 30% | – | – | – | – | – | – | – |
| COc1ccc(/C=C/C(=O)c2c(OC)cc(OC)c(CC=C(C)C)c2O)cc1 [Compound (C046), 4,4′,6′-trimethoxy-2′-hydroxy-3′-prenylchalcone] | 15 to 30% | > 100% | 60 to 100% | > 100% | > 100% | – | – | – | – | – |
| COc1ccc(C(=O)/C=C/c2ccc(O)cc2)c(OC(C)=O)c1C/C=C(\C)CCC=C(C)C [Compound (C064-2), 2′-acetoxy-3′-geranyl-4-hydroxy-4′-methoxychalcone] | 15 to 30% | 30 to 60% | > 100% | > 100% | > 100% | – | – | – | – | – |
| C=C(C)C(CC/C(C)=C/Cc1c(OC)ccc(C(=O)/C=C/c2ccc(O)cc2)c1O)OO (centres unmarked) [TB9, 1-[2-hydroxy-3-(6-hydroperoxy-3,7-dimethyl-2,7-octadienyl)-4-methoxyphenyl]-3-(4-hydroxyphenyl)-2-propen-1-one] | 15 to 30% | 15 to 30% | – | 30 to 60% | > 100% | – | – | – | – | – |
| O=C(/C=C/c1ccc(O)cc1)c1ccc(O)c(Cc2ccccc2)c1O [Compound (C057), 4,2′,4′-trihydroxy-3′-benzylchalcone] | – | 15 to 30% | 30 to 60% | > 100% | > 100% | – | – | – | – | – |
| COc1ccc(C(C)=O)c(O)c1CC=C(C)C [Compound (C026), 2′-hydroxy-3′-prenyl-4′-methoxyacetophenone] | 15 to 30% | 30 to 60% | – | 30 to 60% | – | 30 to 60% | 60 to 100% | 60 to 100% | – | – |
| COc1ccc(C(=O)/C=C/c2ccco2)c(O)c1CC=C(C)C [Compound (FUR-1), 3-(2-furyl)-1-(2-hydroxy-3-prenyl-4-methoxyphenyl)-2-propen-1-one] | – | 15 to 30% | 30 to 60% | 60 to 100% | > 100% | – | – | – | 15 to 30% | – |
| COc1ccc(C(=O)/C=C/c2ccc(O)cc2)c(O)c1C/C=C(\C)C/C=C/C(C)(C)OO [TB8, 1-[2-hydroxy-3-(7-hydroperoxy-3,7-dimethyl-2,5-octadienyl)-4-methoxyphenyl]-3-(4-hydroxyphenyl)-2-propen-1-one] | 15 to 30% | 60 to 100% | 30 to 60% | 60 to 100% | > 100% | – | – | – | – | – |
| COc1cc(O)c(C(C)=O)cc1CC=C(C)C [Compound (C027), 2′-hydroxy-4′-methoxy-5′-prenylacetophenone] | – | 15 to 30% | – | 30 to 60% | – | – | 15 to 30% | 30 to 60% | – | – |
| COc1ccc(C(=O)/C=C/c2ccc(O)cc2)c(O)c1Cc1ccccc1 [Compound (C056), 4,2′-dihydroxy-3′-benzyl-4′-methoxychalcone] | 15 to 30% | > 100% | 30 to 60% | > 100% | > 100% | – | – | – | 15 to 30% | – |
| COc1ccc(C(C)=O)c(O)c1CCC(C)C [Compound (C041), 2′-hydroxy-3′-(3-methylbutyl)-4′-methoxyacetophenone] | – | – | 30 to 60% | > 100% | > 100% | – | – | – | – | – |
| COc1ccc(C(C)=O)c(O)c1C/C=C(\C)CC/C=C(\C)CCC=C(C)C [Compound (C052), 2′-hydroxy-3′-farnesyl-4′-methoxyacetophenone] | 15 to 30% | 30 to 60% | – | 30 to 60% | 30 to 60% | – | – | – | – | – |
| CCOc1ccc(C(C)=O)c(O)c1CC=C(C)C [Compound (C047), 2′-hydroxy-3′-prenyl-4′-ethoxyacetophenone] | 30 to 60% | 60 to 100% | – | > 100% | 30 to 60% | – | – | – | – | 60 to 100% |
